These results are taken from patent US20240083846A1, “SMAC MIMETICS FOR TREATMENT OF CANCER, PROCESS FOR PREPARATION AND PHARMACEUTICAL COMPOSITION THEREOF” (COUNCIL OF SCIENTIFIC & INDUSTRIAL RESEARCH, priority 2020, published 2024).

Molecules are shown by their SMILES. Like-named read-outs stand apart in the source and are kept apart here. Where a SMILES comes first, the peptide text is derived from it. [ ]: non-standard residue; d: D form. The star is where a group is joined. Pro(5R-(5-methylfur-2-yl)) = Cc1ccc([C@H]2CC[C@@H](C(=O)O)N2)o1; NHCHPh2 = c1ccc(C(N*)c2ccccc2)cc1; Chg = N[C@H](C(=O)O)C1CCCCC1; NMeA = CN[C@@H](C)C(=O)O; OBn = c1ccc(CO*)cc1 Some results are limits rather than exact numbers.

For series [1], the system named is SW 620 cells. The experiment in a line: SRB cytotoxicity assay, SW 620. In kind it is cell-based. The conditions noted are these: for inhibition at 10 µM: Homo sapiens, read-out: In vitro cytotoxicity at 10 μM dose, SW 620 (percent growth inhibition). How it is done:
(§1) In vitro cytotoxic activities of different compounds were assessed by using standard SRB assay in different cells. The absorbance of the treated and untreated cells was measured on a multi-well scanning spectrophotometer (Epoch Microplate Reader, Biotek, USA) at a wavelength of 510 nm. Percent growth inhibition was calculated by using the formula […].

For series [2], the system named is HT29 cells. Briefly: SRB cytotoxicity assay, HT29. The conditions noted are these: for inhibition at 10 µM: Homo sapiens, read-out: In vitro cytotoxicity at 10 μM dose, HT29 (percent growth inhibition). The class given is cell-based. How it is done:
as §1

Series [3] in a line: SRB cytotoxicity assay, VERO. The class given is cell-based, monkey. The note with it: monkey. How it is done:
as §1
A general note: In SRB staining, fixed cells bind dye roughly in proportion to their protein.

Series [4] concerns the target XIAP BIR2 protein (Homo sapiens, UniProt P98170). Briefly: Fluorescence polarization competition binding assay, XIAP BIR2. The procedure: (§2) The SMAC mimetics 1-9 were tested for their ability to displace the fluorescent labeled peptide AVPIAQK(FAM)-OH from XIAP BIR2 or XIAP BIR3 protein. The dose dependent binding experiment were then carried out by sequentially increasing the concentration of SMAC mimetic compounds at constant concentration of fluorescent labeled peptide and XIAP BIR2 or XIAP BIR3 protein. IC5- values were determined from the plot draw by prism software using nonlinear least-squares analysis. The Ki values of the SMAC mimetics were calculated which was based upon the measured IC50 values, the Kd value between tracer AVPIAQK(FAM)-OH and XIAP BIR2 or XIAP BIR3 complex, and the concentrations of the protein and tracer in the competition assay by using the web based program which are freely accessed at http://sw16.im.med.umich.edu/software/calc_ki/.In-silico.
(§3) Binding isotherms were plotted between FP reading versus log values of protein concentration in nM. The data was analysed using GraphPad prism and Kd values were determined using Boltzmann-sigmoidal non-linear regression curve fitting.
(Fluorescence polarisation rises when a labelled molecule tumbles more slowly, as on binding a larger partner.)

For series [5], the target named is XIAP BIR3 protein (Homo sapiens, UniProt P98170). The experiment in a line: Fluorescence polarization competition binding assay, XIAP BIR3. The procedure: as §2, §3
XIAP BIR3 protein, sequence (P98170 241-356 limits assumed): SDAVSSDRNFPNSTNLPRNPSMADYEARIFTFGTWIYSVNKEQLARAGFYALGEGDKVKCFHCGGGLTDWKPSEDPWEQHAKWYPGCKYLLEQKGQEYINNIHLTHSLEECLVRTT
Series [6] has as its system HCT 116 cells. The experiment in a line: SRB cytotoxicity assay, HCT 116. The class given is cell-based. The conditions noted are these: Homo sapiens, read-out: In vitro cytotoxicity at 10 μM dose, HCT 116 (percent growth inhibition). The procedure:
as §1

The test system of series [7] is SW-620 xenograft. The experiment in a line: Cisplatin resistant SW-620 xenograft model. In kind it is in vivo, nude Crl: CD1-Foxnlnu mice. The note with it: FIG. 7. The text has this: All the animals were maintained in a pathogen-free facility under a day—night cycle.
The mark [8] stands for this setting: SW-620, 10 μM, 48 hours, SRB assay.
Where [9] appears, read: VERO cells, 10 μM, 48 hours, SRB assay, read-out: In vitro cytotoxicity at 10 μM dose, VERO (percent growth inhibition).
Setting [10] is: displacement of AVPIAQK(FAM)-OH, fluorescence polarization, read-out: Target Binding BIR2 Ki.
Setting [11] is: HT-29, 10 μM, 48 hours, SRB assay.
The mark [12] stands for this setting: displacement of AVPIAQK(FAM)-OH, fluorescence polarization, read-out: Target Binding BIR3 Ki.
Where [13] appears, read: HCT-116, 10 μM, 48 hours, SRB assay.

XIAP BIR2 protein, sequence (P98170 124-240 limits assumed): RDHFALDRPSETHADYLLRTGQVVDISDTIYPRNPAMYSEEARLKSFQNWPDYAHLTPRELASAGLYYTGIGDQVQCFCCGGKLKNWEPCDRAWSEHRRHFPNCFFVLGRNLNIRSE

In the case of `CC[C@H](C)[C@H](NC(=O)[C@@H]1CCCN1C(=O)[C@@H](NC(=O)[C@H](C)N)C(C)C)C(=O)O` [Compound 1, L-alanyl-L-valyl-L-prolyl-L-isoleucine], the “In vitro cytotoxicity at 10 μM dose, SW 620 (percent growth inhibition)” value in series [1] (10 μM, 48 hours, SRB assay) was 0.97 ± 2.3%. Moreover, the “In vitro cytotoxicity at 10 μM dose, HT29 (percent growth inhibition)” value in series [2] (10 μM, 48 hours, SRB assay) is reported as −0.01 ± 3.6%.

As usually defined, the inhibition is the change of the read-out against control, counted positive when it falls. For orientation: Ki means the equilibrium dissociation constant of an inhibitor or competing ligand from its target. Take `CC[C@H](C)[C@H](NC(=O)[C@@H]1CC[C@H](c2ccc(C)o2)N1C(=O)[C@@H](NC(=O)[C@H](C)N)C(C)C)C(=O)OCc1ccccc1` [Compound 2, benzyl ((2S,5R)-1-(L-alanyl-L-valyl)-5-(5-methylfuran-2-yl)pyrrolidine-2-carbonyl)-L-isoleucinate]: the inhibition at 10 µM is 7.88 ± 8% in series [1] (setting [8]), -1.83 ± 5.5% in series [2] (setting [11]) and -7.06 ± 6.9% in series [6] (setting [13]). The inhibition at 48 h, 10 μM in series [3] (setting [9]) was found to be 24.2 ± 22.7%. For the same compound, the inhibition constant (Ki) in series [4] (setting [10]) and in series [5] (setting [12]) was over 10 µM throughout.

Take `Cc1ccc([C@H]2CC[C@@H](C(=O)NC(c3ccccc3)c3ccccc3)N2C(=O)[C@@H](NC(=O)[C@H](C)N)C(C)C)o1` [Compound 3, (2S,5R)-1-(L-alanyl-L-valyl)-N-benzhydryl-5-(5-methylfuran-2-yl)pyrrolidine-2-carboxamide]: the inhibition at 10 µM in series [1] (setting [8]) was 1.44 ± 2.1%; in series [2] (setting [11]), -0.46 ± 2.2%; in series [6] (setting [13]), -2.6 ± 6.1%. For the same compound, the inhibition at 48 h, 10 μM in series [3] (setting [9]) was 3.89 ± 3.4%. Further, the Ki came to 1.08 µM in series [4] (setting [10]) and 0.23 µM in series [5] (setting [12]).

Take `CC[C@H](C)[C@H](NC(=O)[C@@H]1CC[C@H](c2ccc(C)o2)N1C(=O)[C@@H](NC(=O)[C@H](C)NC)C(C)C)C(=O)OCc1ccccc1` [Compound 4, (2S,3S)-benzyl 3-methyl-2-((2S,5R)-1-((S)-3-methyl-2-((S)-2-(methylamino)propanamido)butanoyl)-5-(5-methylfuran-2-yl)pyrrolidine-2-carboxamido)pentanoate]: the inhibition at 10 µM in series [1] (setting [8]) was -4.1%; in series [2] (setting [11]), 12 ± 0.6%; in series [6] (setting [13]), -8.07 ± 6.6%. The inhibition at 48 h, 10 μM in series [3] (setting [9]) worked out at 4.54 ± 5.6%. In addition, the inhibitory constant (Ki) was determined as 7.39 µM in series [4] (setting [10]) and 4.38 µM in series [5] (setting [12]).

As for `CN[C@@H](C)C(=O)N[C@H](C(=O)N1[C@@H](c2ccc(C)o2)CC[C@H]1C(=O)NC(c1ccccc1)c1ccccc1)C(C)C` [Compound 5, (2S,5R)-N-benzhydryl-1-(methyl-L-alanyl-L-valyl)-5-(5-methylfuran-2-yl)pyrrolidine-2-carboxamide], the inhibition at 10 µM in series [1] (setting [8]) worked out at 8.11 ± 11.3%; in series [2] (setting [11]), 40.9 ± 5.3%; in series [6] (setting [13]), 5.96 ± 1.2%. The inhibition at 48 h, 10 μM in series [3] (setting [9]) was 11.4 ± 1.1%. The Ki worked out at 3.25 µM in series [4] (setting [10]) and 0.5 µM in series [5] (setting [12]).

As to `CC[C@H](C)[C@H](NC(=O)[C@@H]1CC[C@H](c2ccc(C)o2)N1C(=O)[C@@H](NC(=O)[C@H](C)NC)C1CCCCC1)C(=O)OCc1ccccc1` [Compound 7, (2S,3S)-benzyl 2-((2S,5R)-1-((S)-2-cyclohexyl-2-((S)-2-(methylamino)propanamido)acetyl)-5-(5-methylfuran-2-yl)pyrrolidine-2-carboxamido)-3-methylpentanoate] (H-[NMeA][Chg][Pro(5R-(5-methylfur-2-yl))]I-OBn), the inhibition at 10 µM in series [1] (SW-620, 48 h) turned out to be 52.9 ± 22.4%; in series [2] (HT-29, 48 h), 71.6 ± 10.2%; in series [6] (HCT-116, 48 h), 76.5 ± 2.3%. The inhibition at 48 h, 10 μM in series [3] is 63.2 ± 5%. The Ki is over 10 µM in series [4] (setting [10]) and 1.42 µM in series [5] (setting [12]).

As for `CN[C@@H](C)C(=O)N[C@H](C(=O)N1[C@@H](c2ccc(C)o2)CC[C@H]1C(=O)NC(c1ccccc1)c1ccccc1)C1CCCCC1` [Compound 8, (2S ,5R)-N-benzhydryl-1-((S)-2-cyclohexyl-2-((S)-2-(methylamino)propanamido)acetyl)-5-(5-methylfuran-2-yl)pyrrolidine-2-carboxamide], the inhibition at 10 µM turned out to be 38.7 ± 12.6% in series [1] (setting [8]), 66 ± 2.4% in series [2] (setting [11]) and 48.5 ± 6.7% in series [6] (setting [13]). Moreover, in series [3] (setting [9]), the inhibition at 48 h, 10 μM is 39.4 ± 6.9%. For the same compound, the inhibitory constant (Ki) was determined as 1.8 µM in series [4] (setting [10]) and 0.73 µM in series [5] (setting [12]).

`CC[C@H](C)[C@H](NC(=O)[C@@H]1CC[C@H](c2ccc(C)o2)N1C(=O)[C@@H](NC(=O)[C@H](C)NC)C1CCCCC1)C(=O)NC(c1ccccc1)c1ccccc1` [Compound 9, (2S,5R)-N-((2S ,3S)-1-(benzhydrylamino)-3-methyl-l-oxopentan-2-yl)-1-((S)-2-cyclohexyl-2-((S)-2-(methylamino)propanamido)acetyl)-5-(5-methylfuran-2-yl)pyrrolidine-2-carboxamide] (H-[NMeA][Chg][Pro(5R-(5-methylfur-2-yl))]I-NHCHPh2): the inhibition at 10 µM in series [1] (SW-620, 48 h) was 81.8 ± 3.3%; in series [2] (HT-29, 48 h), 72.7 ± 6.9%; in series [6] (HCT-116, 48 h), 66.2 ± 15%. The inhibition at 48 h, 10 μM in series [3] (10 μM, 48 hours, SRB assay, read-out: In vitro cytotoxicity at 10 μM dose, VERO (percent growth inhibition)) amounted to 59.4 ± 11.7%. The inhibitory constant (Ki) is over 10 µM in series [4] and 0.79 µM in series [5].

As for `N.N.[Cl][Pt][Cl]` [cisplatin, reference compound], in series [7], the “In vivo anti tumor efficacy” value is on record as “failed to deliver its effect”.
